Results on nine molecules are retold here after patent US20260226086A1, “COMPOUNDS AND COMPOSITIONS AS STAT3 DEGRADERS AND USES THEREOF” (REGENTS OF THE UNIVERSITY OF MICHIGAN, priority 2023, published 2026).

As usually defined, the IC50 is the midpoint of a concentration-inhibition curve. Read a low IC50 as greater potency. The Dmax is the largest share of the target that was removed. Read a high Dmax as a fuller loss of target. As a reminder, the DC50 is the concentration giving 50% degradation.

Type in all cases: cell-based
The test system of one assay is SU-DHL-1 cells. Put plainly: CellTiter-Glo 2.0 cell viability assay, SU-DHL-1. Conditions: Homo sapiens, 96 h, 4 days. A digest of the protocol: (§1)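 IC50 derived by four-parameter nonlinear regression on triplicate luminescence data (CellTiter-Glo 2.0), normalised to untreated controls. Cells plated at 1000/well received serial compound dilutions for 4 days at 37 °C with 5% CO2.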
A general note: Cellular ATP, detected with luciferase, serves as a proxy for viable cell number.

The next assay relates to SUP-M2 cells. Put plainly: CellTiter-Glo 2.0 cell viability assay, SUP-M2. The settings on record: SUP-M2, 96 h, 4 days. Put shortly:
as §1

The next assay has as its target T1, STAT3 (Homo sapiens, UniProt P40763).
T1 construct: This cell line is a clone created by using CRISPR-Cas9 to fuse HiBiT to the 3′ end of STAT3 in HeLa cells; host or cells: STAT3-HiBiT KI HeLa cell line (CRISPR-Cas9 knock-in clone)
Put plainly: HiBiT assay, STAT3 degradation in STAT3-HiBiT KI HeLa cells. Conditions: 24 h; for DC50: read-out: STAT3 Degradation (HeLa 24 h HiBit) DC50. Put shortly:
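Luminescence of endogenous HiBiT-tagged STAT3 (C-terminal knock-in, HeLa) was measured with lytic Nano-Glo detection after 24 h exposure to serially diluted compounds at 37 °C. Cells plated at 20000/well; untreated cells served as control, and triplicate means were fit by four-parameter regression to give IC50.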
Background: The HiBiT peptide binds its large partner to form an active luciferase.

T1 sequence (P40763 whole entry): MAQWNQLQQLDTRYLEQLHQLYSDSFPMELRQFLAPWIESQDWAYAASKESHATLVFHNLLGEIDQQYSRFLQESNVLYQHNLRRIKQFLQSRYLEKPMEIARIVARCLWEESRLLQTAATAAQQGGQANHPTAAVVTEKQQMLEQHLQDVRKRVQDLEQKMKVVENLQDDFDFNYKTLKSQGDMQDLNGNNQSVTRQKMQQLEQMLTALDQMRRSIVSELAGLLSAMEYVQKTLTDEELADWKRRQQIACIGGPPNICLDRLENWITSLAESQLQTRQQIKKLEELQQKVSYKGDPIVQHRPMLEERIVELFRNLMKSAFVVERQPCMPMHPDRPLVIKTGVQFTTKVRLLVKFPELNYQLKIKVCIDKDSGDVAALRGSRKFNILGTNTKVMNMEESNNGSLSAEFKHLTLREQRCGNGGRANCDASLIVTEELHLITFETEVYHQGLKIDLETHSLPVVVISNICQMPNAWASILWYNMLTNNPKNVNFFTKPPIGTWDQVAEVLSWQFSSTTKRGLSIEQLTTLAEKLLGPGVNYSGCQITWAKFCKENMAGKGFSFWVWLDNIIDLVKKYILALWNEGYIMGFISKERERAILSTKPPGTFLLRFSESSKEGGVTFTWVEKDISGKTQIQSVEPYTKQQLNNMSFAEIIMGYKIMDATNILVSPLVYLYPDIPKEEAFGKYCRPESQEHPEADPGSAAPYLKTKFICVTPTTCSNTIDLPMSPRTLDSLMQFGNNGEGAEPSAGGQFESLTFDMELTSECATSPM

Regarding `CC(=O)N1CC[C@H]2CC[C@@H](C(=O)N[C@@H](CCC(N)=O)COc3cccc(CCCc4cn(C[C@H](NC(=O)[C@@H]5C[C@@H](O)CN5C(=O)[C@@H](n5cc(C6CC6)nn5)C(C)(C)C)c5ccc(-c6scnc6C)cc5)nn4)c3Cl)N2C(=O)[C@@H](NC(=O)c2cc3cc(C(=O)P(=O)(O)O)ccc3[nH]2)C1` [Compound 6, (2-(((5S,8S,10aR)-3-acetyl-8-(((S)-5-amino-1-(2-chloro-3-(3-(1-((R)-2-((2S,4R)-1-((S)-2-(4-cyclopropyl-1H-1,2,3-triazol-1-yl)-3,3-dimethylbutanoyl)-4-hydroxypyrrolidine-2-carboxamido)-2-(4-(4-methylthiazol-5-yl)phenyl)ethyl)-1H-1,2,3-triazol-4-yl)propyl)phenoxy)-5-oxopentan-2-yl)carbamoyl)-6-oxodecahydropyrrolo[1,2-a][1,5]diazocin-5-yl)carbamoyl)-1H-indole-5-carbonyl)phosphonic acid], the half-inhibitory concentration (IC50) with SU-DHL-1 cells was in the range of 10 to 100 nM. In the assay on SUP-M2 cells, this molecule came in with an IC50 of 10 to 100 nM. Also, at STAT3, the greatest degradation seen (Dmax) at 1 µM is more than 80% and the 50% degradation concentration (DC50) was less than 10 nM.
`Cc1ncsc1-c1ccc([C@H](C)NC(=O)[C@@H]2C[C@@H](O)CN2C(=O)[C@@H](n2cc(CCCC(=O)N3CC[C@H]4CC[C@@H](C(=O)N[C@@H](CCC(N)=O)C(=O)NC(c5ccccc5)c5ccccc5)N4C(=O)[C@@H](NC(=O)c4cc5cc(C(=O)P(=O)(O)O)ccc5[nH]4)C3)nn2)C(C)(C)C)cc1` [Compound 56, (2-(((5S,8S,10aR)-8-(((S)-5-amino-1-(benzhydrylamino)-1,5-dioxopentan-2-yl)carbamoyl)-3-(4-(1-((S)-1-((2S,4R)-4-hydroxy-2-(((S)-1-(4-(4-methylthiazol-5-yl)phenyl)ethyl)carbamoyl)pyrrolidin-1-yl)-3,3-dimethyl-1-oxobutan-2-yl)-1H-1,2,3-triazol-4-yl)butanoyl)-6-oxodecahydropyrrolo[1,2-a][1,5]diazocin-5-yl)carbamoyl)-1H-indole-5-carbonyl)phosphonic acid]: the IC50 in the assay on SU-DHL-1 cells and in the assay on SUP-M2 cells was 100 to 1000 nM throughout. For the same molecule, at STAT3, the half-maximal degradation concentration (DC50) is more than 1000 nM.
For `CCS(=O)(=O)c1ccc(CNC(=O)[C@H](CCC(N)=O)NC(=O)[C@@H]2CC[C@@H]3CCN(C(=O)[C@H]4CC[C@H](c5cn([C@H](C(=O)N6C[C@H](O)C[C@H]6C(=O)N[C@@H](C)c6ccc(-c7scnc7C)cc6)C(C)(C)C)nn5)CC4)C[C@H](NC(=O)c4cc5cc(C(=O)P(=O)(O)O)ccc5[nH]4)C(=O)N32)cc1` [Compound 18, (2-(((5S,8S,10aR)-8-(((S)-5-amino-1-((4-(ethylsulfonyl)benzyl)amino)-1,5-dioxopentan-2-yl)carbamoyl)-3-((1S,4S)-4-(1-((S)-1-((2S,4R)-4-hydroxy-2-(((S)-1-(4-(4-methylthiazol-5-yl)phenyl)ethyl)carbamoyl)pyrrolidin-1-yl)-3,3-dimethyl-1-oxobutan-2-yl)-1H-1,2,3-triazol-4-yl)cyclohexane-1-carbonyl)-6-oxodecahydropyrrolo[1,2-a][1,5]diazocin-5-yl)carbamoyl)-1H-indole-5-carbonyl)phosphonic acid], the IC50 in the assay with SU-DHL-1 cells lay within 10 to 100 nM. For the same molecule, in the assay with SUP-M2 cells, the IC50 was 100 to 1000 nM. Besides, at STAT3, the Dmax at 1 µM is more than 80% and the half-maximal degradation concentration (DC50) lay within 10 to 100 nM.
As for `Cc1ncsc1-c1ccc([C@H](C)NC(=O)[C@@H]2C[C@@H](O)CN2C(=O)[C@@H](NC(=O)CCCC(=O)N2CC[C@H]3CC[C@@H](C(=O)N[C@@H](CCC(N)=O)C(=O)NC(c4ccccc4)c4ccccc4)N3C(=O)[C@@H](NC(=O)c3cc4cc(C(=O)P(=O)(O)O)ccc4[nH]3)C2)C(C)(C)C)cc1` [Compound 48, (2-(((5S,8S,10aR)-8-(((S)-5-amino-1-(benzhydrylamino)-1,5-dioxopentan-2-yl)carbamoyl)-3-(5-(((S)-1-((2S,4R)-4-hydroxy-2-(((S)-1-(4-(4-methylthiazol-5-yl)phenyl)ethyl)carbamoyl)pyrrolidin-1-yl)-3,3-dimethyl-1-oxobutan-2-yl)amino)-5-oxopentanoyl)-6-oxodecahydropyrrolo[1,2-a][1,5]diazocin-5-yl)carbamoyl)-1H-indole-5-carbonyl)phosphonic acid], the half-maximal inhibitory concentration (IC50) with SU-DHL-1 cells and in the assay with SUP-M2 cells was 10 to 100 nM throughout. In addition, on STAT3, the half-maximal degradation concentration (DC50) fell in the range of 10 to 100 nM.
For the molecule `CC(=O)N1CC[C@H]2CC[C@@H](C(=O)N[C@@H](CCC(N)=O)COc3cccc(CCCc4cn([C@H](C(=O)N5C[C@H](O)C[C@H]5C(=O)N[C@@H](C)c5ccc(-c6scnc6C)cc5)C(C)(C)C)nn4)c3Cl)N2C(=O)[C@@H](NC(=O)c2cc3cc(C(=O)P(=O)(O)O)ccc3[nH]2)C1` [Compound 1, (2-(((5S,8S,10aR)-3-acetyl-8-(((S)-5-amino-1-(2-chloro-3-(3-(1-((S)-1-((2S,4R)-4-hydroxy-2-(((S)-1-(4-(4-methylthiazol-5-yl)phenyl)ethyl)carbamoyl)pyrrolidin-1-yl)-3,3-dimethyl-1-oxobutan-2-yl)-1H-1,2,3-triazol-4-yl)propyl)phenoxy)-5-oxopentan-2-yl)carbamoyl)-6-oxodecahydropyrrolo[1,2-a][1,5]diazocin-5-yl)carbamoyl)-1H-indole-5-carbonyl)phosphonic acid], the concentration for half-maximal inhibition (IC50) with SU-DHL-1 cells was less than 10 nM. The 50% inhibitory concentration (IC50) in the assay on SUP-M2 cells is less than 10 nM. In addition, at STAT3, the Dmax at 1 µM was more than 80% and the half-maximal degradation concentration (DC50) is less than 10 nM.
On to `Cc1ncsc1-c1ccc([C@H](C)NC(=O)[C@@H]2C[C@@H](O)CN2C(=O)[C@@H](n2cc(CCC(=O)N3CC[C@H]4CC[C@@H](C(=O)N[C@@H](CCC(N)=O)C(=O)NCc5cccc(Cl)c5)N4C(=O)[C@@H](NC(=O)c4cc5cc(C(=O)P(=O)(O)O)ccc5[nH]4)C3)nn2)C(C)(C)C)cc1` [Compound 8, (2-(((5S,8S,10aR)-8-(((S)-5-amino-1-((3-chlorobenzyl)amino)-1,5-dioxopentan-2-yl)carbamoyl)-3-(3-(1-((S)-1-((2S,4R)-4-hydroxy-2-(((S)-1-(4-(4-methylthiazol-5-yl)phenyl)ethyl)carbamoyl)pyrrolidin-1-yl)-3,3-dimethyl-1-oxobutan-2-yl)-1H-1,2,3-triazol-4-yl)propanoyl)-6-oxodecahydropyrrolo[1,2-a][1,5]diazocin-5-yl)carbamoyl)-1H-indole-5-carbonyl)phosphonic acid], for which the IC50 with SU-DHL-1 cells is 100 to 1000 nM. Also, the IC50 in the assay on SUP-M2 cells is 10 to 100 nM. In addition, on STAT3, the maximal degradation (Dmax) at 1 µM is more than 80% and the DC50 fell in the range of 100 to 1000 nM.
As to `Cc1ncsc1-c1ccc([C@H](C)NC(=O)[C@@H]2C[C@@H](O)CN2C(=O)[C@@H](NC(=O)CCCCCCC(=O)N2CC[C@H]3CC[C@@H](C(=O)N[C@@H](CCC(N)=O)C(=O)NC(c4ccccc4)c4ccccc4)N3C(=O)[C@@H](NC(=O)c3cc4cc(C(=O)P(=O)(O)O)ccc4[nH]3)C2)C(C)(C)C)cc1` [Compound 51, (2-(((5S,8S,10aR)-8-(((S)-5-amino-1-(benzhydrylamino)-1,5-dioxopentan-2-yl)carbamoyl)-3-(8-(((S)-1-((2S,4R)-4-hydroxy-2-(((S)-1-(4-(4-methylthiazol-5-yl)phenyl)ethyl)carbamoyl)pyrrolidin-1-yl)-3,3-dimethyl-1-oxobutan-2-yl)amino)-8-oxooctanoyl)-6-oxodecahydropyrrolo[1,2-a][1,5]diazocin-5-yl)carbamoyl)-1H-indole-5-carbonyl)phosphonic acid], the IC50 with SU-DHL-1 cells and in the assay on SUP-M2 cells was 100 to 1000 nM in each case. Besides, on STAT3, the DC50 is 100 to 1000 nM.
In the assay with SU-DHL-1 cells, `Cc1ncsc1-c1ccc([C@H](C)NC(=O)[C@@H]2C[C@@H](O)CN2C(=O)[C@@H](n2cc(CCCc3cccc(OC[C@H](CCC(N)=O)NC(=O)[C@@H]4CC[C@@H]5CCN(C(=O)C(C)C)C[C@H](NC(=O)c6cc7cc(C(=O)P(=O)(O)O)ccc7[nH]6)C(=O)N54)c3Cl)nn2)C(C)(C)C)cc1` [Compound 2, (2-(((5S,8S,10aR)-8-(((S)-5-amino-1-(2-chloro-3-(3-(1-((S)-1-((2S,4R)-4-hydroxy-2-(((S)-1-(4-(4-methylthiazol-5-yl)phenyl)ethyl)carbamoyl)pyrrolidin-1-yl)-3,3-dimethyl-1-oxobutan-2-yl)-1H-1,2,3-triazol-4-yl)propyl)phenoxy)-5-oxopentan-2-yl)carbamoyl)-3-isobutyryl-6-oxodecahydropyrrolo[1,2-a][1,5]diazocin-5-yl)carbamoyl)-1H-indole-5-carbonyl)phosphonic acid] had a half-maximal inhibitory concentration (IC50) of less than 10 nM. Also, the IC50 in the assay on SUP-M2 cells was less than 10 nM. Further, at STAT3, the Dmax at 1 µM was more than 80% and the DC50 is less than 10 nM.
For the molecule `Cc1ncsc1-c1ccc([C@H](C)NC(=O)[C@@H]2C[C@@H](O)CN2C(=O)[C@@H](NC(=O)CCCCCCCCC(=O)N2CC[C@H]3CC[C@@H](C(=O)N[C@@H](CCC(N)=O)C(=O)NC(c4ccccc4)c4ccccc4)N3C(=O)[C@@H](NC(=O)c3cc4cc(C(=O)P(=O)(O)O)ccc4[nH]3)C2)C(C)(C)C)cc1` [Compound 53, (2-(((5S,8S,10aR)-8-(((S)-5-amino-1-(benzhydrylamino)-1,5-dioxopentan-2-yl)carbamoyl)-3-(10-(((S)-1-((2S,4R)-4-hydroxy-2-(((S)-1-(4-(4-methylthiazol-5-yl)phenyl)ethyl)carbamoyl)pyrrolidin-1-yl)-3,3-dimethyl-1-oxobutan-2-yl)amino)-10-oxodecanoyl)-6-oxodecahydropyrrolo[1,2-a][1,5]diazocin-5-yl)carbamoyl)-1H-indole-5-carbonyl)phosphonic acid], the IC50 in the assay with SU-DHL-1 cells and in the assay with SUP-M2 cells was 100 to 1000 nM in each case. Moreover, at STAT3, the DC50 fell in the range of 100 to 1000 nM.
